Results taken from patent US6355799B1, “Substituted benzene compounds, process for their preparation, and herbicidal and defoliant compositions containing them” (ISK Americas Incorporated, priority 1997, dated 2002).

Columns and labels:
Format in all cases: in vivo
[1] = system: redroot pigweed (Amaranthus retroflexus, AMARE); assay: Pre-emerge test, greenhouse herbicide activity screening; conditions: for Pre-emerge Herbicidal Activity, phytotoxicity rating (0-100), AMARE: rated 14 days after application, 0 = no damage, 100 = complete death; for phytotoxicity rating AMARE: pre-emerge, 14 days after application, rating scale 0-100
Outline: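 Rating: 0–100 visual injury, 14 DAA. Application: acetone, 187 l/ha, 15–1000 g ai/ha, flat-fan track sprayer with nozzle 40–45 cm above soil or canopy. Post-emerge runs used 0.25% v/v surfactant on 2–3 leaf plants.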

[2] = system: barnyardgrass (Echinochloa crus-galli, ECHCG); assay: as above; conditions: for Pre-emerge Herbicidal Activity, phytotoxicity rating (0-100), ECHCG: rated 14 days after application, 0 = no damage, 100 = complete death; for phytotoxicity rating ECHCG: pre-emerge, 14 days after application, rating scale 0-100
Outline: (§1)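 Compounds in acetone were track-sprayed at 15-1000 g ai/ha (187 l/ha) on sandy loam pots: pre-emerge one day after seeding, post-emerge at 2-3 leaf stage with 0.25% v/v non-ionic surfactant. Phytotoxicity was rated 14 days later on a 0 (no damage) to 100 (complete death) scale.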

[3] = system: green foxtail (Setaria viridis, SETVI); assay: as above; conditions: for Pre-emerge Herbicidal Activity, phytotoxicity rating (0-100), SETVI: rated 14 days after application, 0 = no damage, 100 = complete death; for phytotoxicity rating SETVI: pre-emerge, 14 days after application, rating scale 0-100
Outline: as §1

[4] = system: ivyleaf morningglory (Ipomoea hederacea, IPOHE); assay: as above; conditions: for Pre-emerge Herbicidal Activity, phytotoxicity rating (0-100), IPOHE: rated 14 days after application, 0 = no damage, 100 = complete death; for phytotoxicity rating IPOHE: pre-emerge, 14 days after application, rating scale 0-100
Outline: as §1

[5] = system: johnsongrass (Sorghum halepense, SORHA); assay: as above; conditions: for Pre-emerge Herbicidal Activity, phytotoxicity rating (0-100), SORHA: rated 14 days after application, 0 = no damage, 100 = complete death; for phytotoxicity rating SORHA: pre-emerge, 14 days after application, rating scale 0-100
Outline: as §1

[6] = system: lambsquarters (Chenopodium album, CHEAL); assay: as above; conditions: for Pre-emerge Herbicidal Activity, phytotoxicity rating (0-100), CHEAL: rated 14 days after application, 0 = no damage, 100 = complete death; for phytotoxicity rating CHEAL: pre-emerge, 14 days after application, rating scale 0-100
Outline: as §1

[7] = system: large crabgrass (Digitaria sanguinalis, DIGSA); assay: as above; conditions: for Pre-emerge Herbicidal Activity, phytotoxicity rating (0-100), DIGSA: rated 14 days after application, 0 = no damage, 100 = complete death; for phytotoxicity rating DIGSA: pre-emerge, 14 days after application, rating scale 0-100
Outline: as §1

[8] = system: sicklepod (Cassia obtusifolia, CASOB); assay: as above; conditions: for Pre-emerge Herbicidal Activity, phytotoxicity rating (0-100), CASOB: rated 14 days after application, 0 = no damage, 100 = complete death; for phytotoxicity rating CASOB: pre-emerge, 14 days after application, rating scale 0-100
Outline: as §1

[9] = system: velvetleaf (Abutilon theophrasti, ABUTH); assay: as above; conditions: for Pre-emerge Herbicidal Activity, phytotoxicity rating (0-100), ABUTH: rated 14 days after application, 0 = no damage, 100 = complete death; for phytotoxicity rating ABUTH: pre-emerge, 14 days after application, rating scale 0-100
Outline: as §1

[10] = system: field corn (Zea mays L., var. Dekalb 535, CORN); assay: Pre-emerge test, crop safety; conditions: for Pre-emerge phytotoxicity rating (0-100), crop damage, CORN: rated 14 days after application, 0 = no damage, 100 = complete death; for phytotoxicity rating CORN: pre-emerge, 14 days after application, rating scale 0-100
Outline: (§2)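 Visual ratings on a 0-100 scale (0 no damage, 100 all plants dead) were taken at 14 days after treatment. Rates of 15-1000 g ai/ha in acetone, 187 l/ha, were sprayed onto soil one day after planting (pre-emerge) or onto 2-3 leaf plants with 0.25% v/v surfactant (post-emerge).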

[11] = system: upland rice (Oryza sp., var. Tebonnet, RICE); assay: Pre-emerge test, crop safety; conditions: for Pre-emerge phytotoxicity rating (0-100), crop damage, RICE: rated 14 days after application, 0 = no damage, 100 = complete death; for phytotoxicity rating RICE: pre-emerge, 14 days after application, rating scale 0-100
Outline: as §2

[12] = system: barnyardgrass (Echinochloa crus-galli, ECHCG); assay: Post-emerge test, greenhouse herbicide activity screening; conditions: post-emerge, 14 days after application, rating scale 0-100
Outline: as §2

[13] = system: green foxtail (Setaria viridis, SETVI); assay: as above; conditions: post-emerge, 14 days after application, rating scale 0-100
Outline: as §2

[14] = system: ivyleaf morningglory (Ipomoea hederacea, IPOHE); assay: as above; conditions: post-emerge, 14 days after application, rating scale 0-100
Outline: as §2

[15] = system: johnsongrass (Sorghum halepense, SORHA); assay: as above; conditions: post-emerge, 14 days after application, rating scale 0-100
Outline: as §2

[16] = system: large crabgrass (Digitaria sanguinalis, DIGSA); assay: as above; conditions: post-emerge, 14 days after application, rating scale 0-100
Outline: as §2

[17] = system: redroot pigweed (Amaranthus retroflexus, AMARE); assay: as above; conditions: post-emerge, 14 days after application
Outline: as §2

[18] = system: sicklepod (Cassia obtusifolia, CASOB); assay: as above; conditions: post-emerge, 14 days after application, rating scale 0-100
Outline: as §2

[19] = system: velvetleaf (Abutilon theophrasti, ABUTH); assay: as above; conditions: post-emerge, 14 days after application, rating scale 0-100
Outline: as §2

[20] = system: field corn (Zea mays L., var. Dekalb 535, CORN); assay: Post-emerge test, crop safety; conditions: post-emerge, 14 days after application, rating scale 0-100
Outline: as §1

[21] = system: upland rice (Oryza sp., var. Tebonnet, RICE); assay: Post-emerge test, crop safety; conditions: post-emerge, 14 days after application, rating scale 0-100
Outline: as §1

[22] = 250 g ai/ha, rating scale 0-100

SMILES: COc1c(Cl)cc(F)c(-n2c(=O)cc(C(F)(F)F)n(C)c2=O)c1NC(=O)COC(C)=O [2-117]
- Pre-emerge Herbicidal Activity, phytotoxicity rating (0-100), AMARE ([1]; 63 g ai/ha): 90
- Pre-emerge Herbicidal Activity, phytotoxicity rating (0-100), AMARE ([1]; 250 g ai/ha): 100
- Pre-emerge Herbicidal Activity, phytotoxicity rating (0-100), ECHCG ([2]; 63 g ai/ha): 10
- Pre-emerge Herbicidal Activity, phytotoxicity rating (0-100), ECHCG ([2]; 250 g ai/ha): 70
- Pre-emerge Herbicidal Activity, phytotoxicity rating (0-100), SETVI ([3]; 63 g ai/ha): 30
- Pre-emerge Herbicidal Activity, phytotoxicity rating (0-100), SETVI ([3]; 250 g ai/ha): 100
- Pre-emerge Herbicidal Activity, phytotoxicity rating (0-100), IPOHE ([4]; 63 g ai/ha): 100
- Pre-emerge Herbicidal Activity, phytotoxicity rating (0-100), IPOHE ([4]; 250 g ai/ha): 100
- Pre-emerge Herbicidal Activity, phytotoxicity rating (0-100), SORHA ([5]; 63 g ai/ha): 10
- Pre-emerge Herbicidal Activity, phytotoxicity rating (0-100), SORHA ([5]; 250 g ai/ha): 60
- Pre-emerge Herbicidal Activity, phytotoxicity rating (0-100), CHEAL ([6]; 63 g ai/ha): 100
- Pre-emerge Herbicidal Activity, phytotoxicity rating (0-100), CHEAL ([6]; 250 g ai/ha): 100
- Pre-emerge Herbicidal Activity, phytotoxicity rating (0-100), DIGSA ([7]; 63 g ai/ha): 30
- Pre-emerge Herbicidal Activity, phytotoxicity rating (0-100), DIGSA ([7]; 250 g ai/ha): 90
- Pre-emerge Herbicidal Activity, phytotoxicity rating (0-100), CASOB ([8]; 63 g ai/ha): 80
- Pre-emerge Herbicidal Activity, phytotoxicity rating (0-100), CASOB ([8]; 250 g ai/ha): 100
- Pre-emerge Herbicidal Activity, phytotoxicity rating (0-100), ABUTH ([9]; 63 g ai/ha): 100
- Pre-emerge Herbicidal Activity, phytotoxicity rating (0-100), ABUTH ([9]; 250 g ai/ha): 100
- Pre-emerge phytotoxicity rating (0-100), crop damage, CORN ([10]; 63 g ai/ha): 10
- Pre-emerge phytotoxicity rating (0-100), crop damage, CORN ([10]; 250 g ai/ha): 35
- Pre-emerge phytotoxicity rating (0-100), crop damage, RICE ([11]; 63 g ai/ha): 30
- Pre-emerge phytotoxicity rating (0-100), crop damage, RICE ([11]; 250 g ai/ha): 90
- phytotoxicity rating ECHCG ([12]; 63 g ai/ha): 0
- phytotoxicity rating ECHCG ([12]; 250 g ai/ha): 0
- phytotoxicity rating SETVI ([13]; 63 g ai/ha): 0
- phytotoxicity rating SETVI ([13]; 250 g ai/ha): 0
- phytotoxicity rating IPOHE ([14]; 63 g ai/ha): 90
- phytotoxicity rating IPOHE ([14]; 250 g ai/ha): 100
- phytotoxicity rating SORHA ([15]; 63 g ai/ha): 0
- phytotoxicity rating SORHA ([15]; 250 g ai/ha): 0
- phytotoxicity rating DIGSA ([16]; 63 g ai/ha): 0
- phytotoxicity rating DIGSA ([16]; 250 g ai/ha): 0
- phytotoxicity rating AMARE ([17]; 63 g ai/ha, rating scale 0-100): 10
- phytotoxicity rating AMARE [17, 22]: 70
- phytotoxicity rating CASOB ([18]; 63 g ai/ha): 40
- phytotoxicity rating CASOB ([18]; 250 g ai/ha): 95
- phytotoxicity rating ABUTH ([19]; 63 g ai/ha): 80
- phytotoxicity rating ABUTH ([19]; 250 g ai/ha): 100
- phytotoxicity rating CORN ([20]; 63 g ai/ha): 5
- phytotoxicity rating CORN ([20]; 250 g ai/ha): 20
- phytotoxicity rating RICE ([21]; 63 g ai/ha): 10
- phytotoxicity rating RICE ([21]; 250 g ai/ha): 40

SMILES: COc1c(Cl)cc(F)c(-n2c(=O)cc(C(F)(F)F)n(C)c2=O)c1NN=CC(C)c1ccccc1 (stereo not drawn) [15-17]
- phytotoxicity rating AMARE ([1]; 63 g ai/ha): 100
- phytotoxicity rating AMARE ([1]; 250 g ai/ha): 100
- phytotoxicity rating ECHCG ([2]; 63 g ai/ha): 100
- phytotoxicity rating ECHCG ([2]; 250 g ai/ha): 100
- phytotoxicity rating SETVI ([3]; 63 g ai/ha): 100
- phytotoxicity rating SETVI ([3]; 250 g ai/ha): 100
- phytotoxicity rating IPOHE ([4]; 63 g ai/ha): 100
- phytotoxicity rating IPOHE ([4]; 250 g ai/ha): 100
- phytotoxicity rating SORHA ([5]; 63 g ai/ha): 100
- phytotoxicity rating SORHA ([5]; 250 g ai/ha): 100
- phytotoxicity rating CHEAL ([6]; 63 g ai/ha): 100
- phytotoxicity rating CHEAL ([6]; 250 g ai/ha): 100
- phytotoxicity rating DIGSA ([7]; 63 g ai/ha): 100
- phytotoxicity rating DIGSA ([7]; 250 g ai/ha): 100
- phytotoxicity rating CASOB ([8]; 63 g ai/ha): 100
- phytotoxicity rating CASOB ([8]; 250 g ai/ha): 100
- phytotoxicity rating ABUTH ([9]; 63 g ai/ha): 100
- phytotoxicity rating ABUTH ([9]; 250 g ai/ha): 100
- phytotoxicity rating CORN ([10]; 63 g ai/ha): 80
- phytotoxicity rating CORN ([10]; 250 g ai/ha): 95
- phytotoxicity rating RICE ([11]; 63 g ai/ha): 100
- phytotoxicity rating RICE ([11]; 250 g ai/ha): 100
- Post-emerge Herbicidal Activity ECHCG (phytotoxicity rating) ([12]; 63 g ai/ha): 50
- Post-emerge Herbicidal Activity ECHCG (phytotoxicity rating) ([12]; 250 g ai/ha): 99
- Post-emerge Herbicidal Activity SETVI (phytotoxicity rating) ([13]; 63 g ai/ha): 40
- Post-emerge Herbicidal Activity SETVI (phytotoxicity rating) ([13]; 250 g ai/ha): 90
- Post-emerge Herbicidal Activity IPOHE (phytotoxicity rating) ([14]; 63 g ai/ha): 100
- Post-emerge Herbicidal Activity IPOHE (phytotoxicity rating) ([14]; 250 g ai/ha): 100
- Post-emerge Herbicidal Activity SORHA (phytotoxicity rating) ([15]; 63 g ai/ha): 20
- Post-emerge Herbicidal Activity SORHA (phytotoxicity rating) ([15]; 250 g ai/ha): 95
- Post-emerge Herbicidal Activity DIGSA (phytotoxicity rating) ([16]; 63 g ai/ha): 40
- Post-emerge Herbicidal Activity DIGSA (phytotoxicity rating) ([16]; 250 g ai/ha): 99
- Post-emerge Herbicidal Activity AMARE (phytotoxicity rating) ([17]; 63 g ai/ha, rating scale 0-100 (0 no damage, 100 complete death)): 90
- Post-emerge Herbicidal Activity AMARE (phytotoxicity rating) [17, 22]: 100
- Post-emerge Herbicidal Activity CASOB (phytotoxicity rating) ([18]; 63 g ai/ha): 80
- Post-emerge Herbicidal Activity CASOB (phytotoxicity rating) ([18]; 250 g ai/ha): 100
- Post-emerge Herbicidal Activity ABUTH (phytotoxicity rating) ([19]; 63 g ai/ha): 100
- Post-emerge Herbicidal Activity ABUTH (phytotoxicity rating) ([19]; 250 g ai/ha): 100
- Post-emerge Herbicidal Activity CORN (crop damage rating) ([20]; 63 g ai/ha): 35
- Post-emerge Herbicidal Activity CORN (crop damage rating) ([20]; 250 g ai/ha): 80
- Post-emerge Herbicidal Activity RICE (crop damage rating) ([21]; 63 g ai/ha): 75
- Post-emerge Herbicidal Activity RICE (crop damage rating) ([21]; 250 g ai/ha): 90
